# Key:
# [1] = Controlled release of complexed Cav-1 siRNA from crosslinked alginate gel; assay type: physicochemical
# Description: siRNA complexed with dioleoyl monoamine is formulated as described in Example 39 containing 50 μg Cav-1 siRNA and 1.4 μg dioleoyl monoamine in a volume of 50 μL. Sodium alginate (Type A) is dissolved in water to give a 2% solution. An alginate solution (100 μL) is added to a single well of a 96-well plate followed by 50 μL of the dioleoyl monoamine/Cav-siRNA solution. After thorough mixing, 50 μL of a 0.68 M CaCl2 solution is added to the previous mixture to crosslink the gel. One hundred μL of water or 0.1 M EDTA (which serves to break down the gel by complexing the Ca^2+ ions) is then added to ensure complete submersion of the gel in aqueous solution. At the prescribed time points, the supernatants are removed (200 μL) and replaced with fresh 200 μL water or 0.1 M EDTA. After 84 hours, all collected samples are assayed for Cav-1 siRNA content using qRT-PCR. The siRNA amounts collected at each time point are summed in order to determine amount released over time. In samples that have the addition of EDTA, 100% of the loaded dioleoyl monoamine formulated siRNA is released after 84 hours.
# [2] = test system: squamous cell carcinoma tumors; assay: Tumor growth inhibition and survival after intratumoral formulated VEGF siRNA; assay type: in vivo, mice
# Description: (§1) In this example tumors were implanted into the hind flanks of […] by injecting 5×10^5 squamous cell carcinoma cells. Tumors were allowed to grow until they reached a size of […]. Tumors were then injected with a commercially available siRNA targeting VEGF that was formulated with dioleoyl monoamine at a 5:1 N:P ratio or with a similarly formulated non-silencing control siRNA. The final concentration of siRNA was 0.3 mg/mL. A total of 30 μl of the formulated siRNA solution was injected into tumors and injections were repeated every 3-4 days for a total of 6 injections. The tumors from some animals were harvested 48 hours after the second formulated siRNA injection for transcript analysis.
# VEGF protein = assay: In vitro transfection of simVEGF siRNA complexes, supernatant mVEGF protein knockdown; assay type: cell-based, murine; conditions: SCCVII cells, 0.5 μg complexed simVEGF siRNA, 6 h + 40 h
# Description: (§2) The transfection activity of siRNA and dioleoyl monoamine delivery reagent conjugate complexes is determined in vitro. Transfection complexes containing simVEGF siRNA construct are prepared by methods previously described in Example 9. SCCVII cells (0.5×10^5 cells/well) are seeded into 24-well tissue culture plates in 10% FBS. Each well is incubated for 6 hours with 0.5 μg of complexed siRNA in a total volume of 250 μL of DMEM. When the incubation period is concluded, 250 μL of DMEM supplemented with 20% FBS is added to the transfected cells and incubated further for another 40 hours. At the end of the incubation period, supernatant mVEGF protein determinations are made.
# as §2, with “siRNA complexes with” for “siRNA and”, “monoamine (Example 3) or methyl-dioleoyl monoamine (Example 3A)” for “monoamine”, “delivery reagents” for “delivery reagent conjugate complexes”, “previously described.” for “previously described in Example 9.”, “are made as described above.” for “are made.”
# VEGF transcript = VEGF transcript knockdown in subcutaneous tumors after intratumoral injection of formulated siVEGF; assay type: in vivo, mice; conditions: VEGF siRNA 5:1 N:P, 0.3 mg/mL, 30 μl intratumoral, 48 h after second injection
# Description: as §1
# [3] = test system: Caveolin-1 (Cav-1) transcript; assay: Caveolin-1 transcript knockdown in lung and liver after single iv injection of formulated siRNA (qRTPCR); assay type: in vivo, mice; conditions: 100 μg siRNA iv, 10:1 ratio, 48 h, normalized to β-actin, vs non-targeting siRNA control
# Description: A total of 100 μg siRNA is injected in a final volume of 200 μL (0.5 mg/mL). […] Results (FIG. 3) indicate a significant decrease in target specific Cav-1 transcript levels in both lungs (76% knockdown) and livers (62% knockdown). For each group, n=5.
# [4] = one week after last of 6 intratumoral injections
structure (smiles),measurement,setting,value
"CCCCCCCC/C=C\CCCCCCCC(=O)NCCN(CCN)CCNC(=O)CCCCCCC/C=C\CCCCCCCC [dioleoyl monoamine, N,N′-dioleoyl tris(aminoethyl)amine]",loaded siRNA released from alginate gel,"[1]; with 0.1 M EDTA, after 84 hours",100%
same,loaded siRNA released from alginate gel,"[1]; without EDTA (water), by 84 hours",< 20%
same,improvement in median survival relative to non-silencing control or untreated groups,"[2]; VEGF siRNA intratumoral, 6 injections",13%
same,decrease in tumor volume relative to non-silencing siRNA,[2]; [4],31%
same,decrease in tumor volume relative to untreated control animals,[2]; [4],57%
same,knockdown of VEGF protein,VEGF protein,~95%
same,decrease in VEGF transcript relative to the non-silencing control group,VEGF transcript,32%
same,"Cav-1 transcript knockdown, livers",[3],62%
same,"Cav-1 transcript knockdown, lungs",[3],76%
